# From patent publication US20100056524A1, “Compound” (priority 2008, published 2010)
# Where a name gives a salt, the structure may show the parent alone. Read-outs that look alike come from different tables or passages of the source.
# Legend:
# [1] = target: T1, CDK2-Cyclin A (Homo sapiens, UniProt P24941); assay: CDK2-Cyclin A protein kinase assay; format: biochemical; conditions: for remaining activity at 10 µM: 10 μM compound; for residual kinase activity CDK2-Cyclin A: 1 μm compound; for remaining activity at 1 µM: 1 μM compound
# T1 construct: All protein kinases were of human origin and encoded full length proteins, unless indicated otherwise; GST (cleaved yes); made in house; host or cells: E. coli
# Source text: (§1) All protein kinases were of human origin and encoded full length proteins, unless indicated otherwise. They were either expressed as glutathione S-transferase (GST) fusion proteins in Escherichia Coli or as hexahistidine (His6)-tagged proteins in insect Sf21 cells. GST fusion proteins were purified by affinity chromatography on glutathione-Sepharose, and His6-tagged proteins on nickel/nitriloacetate-agarose. The procedures for expressing some of the protein kinases used herein have been detailed previously.^8,9 The following sections outline the DNA vectors synthesised and the procedures used to express and purifying protein kinases that have not been reported previously.
# The following proteins were expressed in E. coli: —CHK2[5-543], cyclin-dependent protein kinase 2 (CDK2), MAP kinase-interacting kinase 2 (MNK2), extra-cellular signal-regulated kinase 1 (ERK1).
# In order to produce activated forms of Aurora B and Aurora C, insect Sf21 cells were incubated for 1 h with the protein phosphatase inhibitor okadaic acid (50 nM). JNK isoforms were activated with MKK4 and MKK7, MNK2 with p38α MAPkinase; PKBα, PKBβ, with PDK1, and ERK1 with MKK1. To activate CDK2, bacterial pellets expressing cyclin A2 and CDK2 were mixed together, lyse and purified on glutathione Sepharose. The GST-tags were removed by cleavage with PreScission protease and the CDK2-cyclin A2 complex purified by chromatography on SP-Sepharose. It was then activated with CAK1/CDK7 followed by chromatography on nickel-nitrilotriacetate agarose to remove CAK1/CDK7, which binds to this column by virtue of its C-terminal His6 tag. All the other protein kinases were active as expressed.
# (§2) All assays (25.5 μl) were carried out at room temperature (21° C.) and were linear with respect to time and enzyme concentration under the conditions used. Assays were performed for 30 min using Multidrop Micro reagent dispensers (Thermo Electron Corporation, Waltham, Mass. 02454, USA) in a 96-well format. The concentration of magnesium acetate in the assays was 10 mM and the [γ-33P] ATP (800 cpm/pmol) was used at 5, 20 or 50 μM as indicated, in order to be at or below the Km for ATP for each enzyme. Protein kinases assayed at 5 μM ATP were: —ERK1, ERK8, PKBα, MARK3, Aurora C. Protein kinases assayed at 20 μM ATP were: —JNK1, PDK1, CHK1, CHK2, CDK2 and Aurora B. Protein kinases assayed at 50 μM ATP were: —MNK2, IKKepsilon and TBK1.
# (§3) The assays were initiated with MgATP, stopped by addition of 5 μl of 0.5 M orthophosphoric acid and spotted on to P81 filterplates using a unifilter harvester (PerkinElmer, Boston, Mass. 02118, USA). The IC50 values of inhibitors were determined after carrying out assays at 10 different concentrations of each compound.
# (§4) Unless stated otherwise, enzymes were diluted in 50 mM Tris/HCl pH 7.5, 0.1 mM EGTA, 1 mg/ml BSA, 0.1% (v/v) 2-mercaptoethanol and assayed in 50 mM Tris/HCl pH 7.5, 0.1 mM EGTA, 0.1% (v/v) 2-mercaptoethanol.
# [2] = target: T2, EPH A2 (Homo sapiens, UniProt P29317); assay: EPH A2 protein kinase assay; format: biochemical; conditions: for remaining activity at 10 µM: 10 μM compound; for residual kinase activity EPH A2: 1 μm compound; for remaining activity at 1 µM: 1 μM compound
# T2 construct: All protein kinases were of human origin and encoded full length proteins, unless indicated otherwise; made in house
# T2 sequence (P29317 591-976 limits assumed): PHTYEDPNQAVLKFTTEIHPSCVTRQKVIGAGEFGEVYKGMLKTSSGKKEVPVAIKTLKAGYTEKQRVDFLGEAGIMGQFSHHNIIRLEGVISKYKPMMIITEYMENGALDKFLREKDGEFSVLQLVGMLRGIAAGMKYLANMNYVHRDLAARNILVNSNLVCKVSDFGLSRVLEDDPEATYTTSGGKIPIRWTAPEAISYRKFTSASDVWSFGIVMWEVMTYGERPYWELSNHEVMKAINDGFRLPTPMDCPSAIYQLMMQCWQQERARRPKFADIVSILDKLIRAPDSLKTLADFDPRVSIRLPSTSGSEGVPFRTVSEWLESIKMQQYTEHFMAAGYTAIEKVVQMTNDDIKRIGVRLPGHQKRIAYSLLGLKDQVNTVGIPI
# Source text: as §1, §2, §3, §4
# [3] = target: T3, RSK1 (Homo sapiens, UniProt Q15418); assay: RSK1 protein kinase assay; format: biochemical; conditions: for remaining activity at 10 µM: 10 μM compound; for residual kinase activity RSK1: 1 μm compound; for remaining activity at 1 µM: 1 μM compound
# T3 construct: All protein kinases were of human origin and encoded full length proteins, unless indicated otherwise; made in house
# T3 sequence (Q15418 whole entry): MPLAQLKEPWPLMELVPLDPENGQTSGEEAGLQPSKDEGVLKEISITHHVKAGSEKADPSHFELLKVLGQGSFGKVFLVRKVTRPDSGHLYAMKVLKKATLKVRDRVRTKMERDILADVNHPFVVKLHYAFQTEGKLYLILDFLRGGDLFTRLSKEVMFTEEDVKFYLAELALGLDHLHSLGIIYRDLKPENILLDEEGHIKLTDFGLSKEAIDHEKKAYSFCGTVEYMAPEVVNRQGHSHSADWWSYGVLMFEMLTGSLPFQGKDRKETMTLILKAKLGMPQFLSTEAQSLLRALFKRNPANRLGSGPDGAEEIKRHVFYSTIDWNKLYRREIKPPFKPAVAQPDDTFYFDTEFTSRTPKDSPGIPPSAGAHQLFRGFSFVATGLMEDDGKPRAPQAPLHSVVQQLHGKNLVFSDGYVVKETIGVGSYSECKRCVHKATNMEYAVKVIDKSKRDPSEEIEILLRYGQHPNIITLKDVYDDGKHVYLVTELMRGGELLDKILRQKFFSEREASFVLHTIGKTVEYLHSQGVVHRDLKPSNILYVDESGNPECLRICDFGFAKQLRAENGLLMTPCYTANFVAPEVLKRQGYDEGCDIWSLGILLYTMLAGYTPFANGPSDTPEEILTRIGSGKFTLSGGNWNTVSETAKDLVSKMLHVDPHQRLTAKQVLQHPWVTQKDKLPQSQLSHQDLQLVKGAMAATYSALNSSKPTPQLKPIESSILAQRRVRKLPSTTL
# Source text: as §1, §2, §3, §4
# [4] = target: T4, PAK5 (Homo sapiens, UniProt Q9P286); assay: PAK5 protein kinase assay; format: biochemical; conditions: for remaining activity at 10 µM: 10 μM compound; for residual kinase activity PAK5: 1 μm compound; for remaining activity at 1 µM: 1 μM compound
# T4 construct: All protein kinases were of human origin and encoded full length proteins, unless indicated otherwise; made in house
# T4 sequence (Q9P286 425-719 limits assumed): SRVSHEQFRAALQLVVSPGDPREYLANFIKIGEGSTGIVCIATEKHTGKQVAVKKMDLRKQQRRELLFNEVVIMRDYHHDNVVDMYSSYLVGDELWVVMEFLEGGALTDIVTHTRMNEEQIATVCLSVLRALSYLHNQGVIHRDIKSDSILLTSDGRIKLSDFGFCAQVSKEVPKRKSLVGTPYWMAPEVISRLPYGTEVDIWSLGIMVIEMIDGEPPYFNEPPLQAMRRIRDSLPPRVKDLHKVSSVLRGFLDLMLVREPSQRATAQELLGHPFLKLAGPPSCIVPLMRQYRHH
# Source text: as §1, §2, §3, §4
# [5] = test system: CK2; assay: CK2 protein kinase assay; format: biochemical, human; conditions: for residual kinase activity: CK2
# Source text: as §1, §2, §3, §4
# [6] = target: T5, NEK2a (Homo sapiens, UniProt P51955); assay: NEK2a protein kinase assay; format: biochemical; conditions: for remaining activity at 10 µM: 10 μM compound; for residual kinase activity NEK2a: 1 μm compound; for remaining activity at 1 µM: 1 μM compound
# T5 construct: All protein kinases were of human origin and encoded full length proteins, unless indicated otherwise; made in house
# T5 sequence (P51955 1-445): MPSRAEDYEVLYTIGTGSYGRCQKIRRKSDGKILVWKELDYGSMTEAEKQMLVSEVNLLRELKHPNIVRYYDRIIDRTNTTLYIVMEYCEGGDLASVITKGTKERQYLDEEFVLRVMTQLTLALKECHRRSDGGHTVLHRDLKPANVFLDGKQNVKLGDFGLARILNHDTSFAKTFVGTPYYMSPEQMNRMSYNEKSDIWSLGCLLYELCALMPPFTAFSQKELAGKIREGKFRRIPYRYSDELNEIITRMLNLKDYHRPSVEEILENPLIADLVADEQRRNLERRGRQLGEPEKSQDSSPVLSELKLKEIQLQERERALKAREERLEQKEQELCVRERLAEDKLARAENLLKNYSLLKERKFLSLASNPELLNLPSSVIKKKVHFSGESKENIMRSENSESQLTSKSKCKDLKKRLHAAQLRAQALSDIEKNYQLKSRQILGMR
# Source text: as §1, §2, §3, §4
# [7] = read-out: residual kinase activity CDK2-Cyclin A
# [8] = read-out: residual kinase activity EPH A2
# [9] = read-out: residual kinase activity RSK1
# [10] = read-out: residual kinase activity PAK5
# [11] = read-out: residual kinase activity NEK2a
# [12] = CDK2-Cyclin A, 20 μM ATP, read-out: residual kinase activity
# [13] = EPH A2, read-out: residual kinase activity
# [14] = RSK1, read-out: residual kinase activity
# [15] = PAK5, read-out: residual kinase activity
# [16] = NEK2a, read-out: residual kinase activity
Structure (SMILES),"remaining activity at 10 µM [1, 7] [%]",residual kinase activity CDK2-Cyclin A [1] [%],"remaining activity at 10 µM [2, 8] [%]",residual kinase activity EPH A2 [2] [%],"remaining activity at 10 µM [3, 9] [%]",residual kinase activity RSK1 [3] [%],"remaining activity at 10 µM [4, 10] [%]",residual kinase activity PAK5 [4] [%],"remaining activity at 1 µM [1, 12] [%]","remaining activity at 10 µM [1, 12] [%]","remaining activity at 1 µM [2, 13] [%]","remaining activity at 10 µM [2, 13] [%]","remaining activity at 1 µM [3, 14] [%]","remaining activity at 10 µM [3, 14] [%]","remaining activity at 1 µM [4, 15] [%]","remaining activity at 10 µM [4, 15] [%]",residual kinase activity ([5]; 1 μM compound) [%],residual kinase activity ([5]; 10 μM compound) [%],"remaining activity at 1 µM [6, 16] [%]","remaining activity at 10 µM [6, 16] [%]",also measured
"O=C(NCCCNc1nc(Nc2cccc(F)c2)ncc1Br)C1CCC1 [Compound A, cyclobutanecarboxylic acid {3-[5-bromo-2-(3-fluoro-phenylamino)-pyrimidin-4-ylamino]-propyl}-amide, reference compound]",0,1,60,87,9,27,14,46,,,,,,,,,,,,,"residual kinase activity CK2 ([5]; 10 μM compound): 44%; residual kinase activity CK2 ([5]; 1 μm compound): 77%; remaining activity at 10 µM [6, 11]: 57%; residual kinase activity NEK2a [6]: 95%"
"O=C(NCCCNc1nc(Nc2cccc(F)c2)ncc1C1CC1)C1CCC1 [Example 23, Cyclobutanecarboxylic acid {3-[5-cyclopropyl-2-(3-fluoro-phenylamino)-pyrimidin-4-ylamino]-propyl}-amide]",2,17,71,71,24,47,56,74,17,2,71,71,47,24,74,56,111,107,91,65,"residual kinase activity CK2 ([5]; 10 μM compound): 107%; residual kinase activity CK2 ([5]; 1 μm compound): 111%; remaining activity at 10 µM [6, 11]: 65%; residual kinase activity NEK2a [6]: 91%"
"O=C(NCCCNc1nc(Nc2cccc(N3CCCC3=O)c2)ncc1C1CC1)c1cccs1 [Example 47, Thiophene-2-carboxylic acid (3-{5-cyclopropyl-2-[3-(2-oxo-pyrrolidin-1-yl)-phenylamino]-pyrimidin-4-ylamino}-propyl)-amide. Hydrochloride salt]",,,,,,,,,70,29,47,76,45,10,69,68,80,78,104,79,
"O=C(NCCCNc1nc(Nc2cccnc2)ncc1C1CC1)c1cccs1 [Example 50, Thiophene-2-carboxylic acid {3-[5-cyclopropyl-2-(pyridin-3-ylamino)-pyrimidin-4-ylamino]-propyl}-amide]",,,,,,,,,33,5,88,73,49,20,73,47,72,80,93,71,
